For orientation: IC50 means the concentration needed to halve the response being measured. A word on the fold induction: it is the ratio of treated to control signal.

The text below walks through data of patent US11192852B2, “Pyrazolyl and pyrimidinyl tricyclic enones as antioxidant inflammation modulators” (REATA PHARMACEUTICALS, INC., priority 2010, dated 2021).

The test system of experiment [1] is IFNγ-induced NO production in RAW264.7 mouse macrophages. Nature of the experiment: Suppression of IFNγ-induced nitric oxide production (Griess reagent). Format: cell-based. Conditions: 2 h pre-treatment (0-200 nM), then IFNγ 24 h, normalized to cell viability. The source says:
Nitric Oxide Production and Cell Viability.

In experiment [2] the test system is Nrf2 transcription factor (human NQO1-ARE reporter) in HuH7 cells. Nature of the experiment: NQO1-ARE Luciferase Reporter Assay. It counts as cell-based. The settings on record: Huh-7, 62.5 nM, 18 h, fold over DMSO vehicle, Firefly normalized to Renilla. The source says: NQO1-ARE Luciferase Reporter Assay.
This assay allows for quantitative assessment of the endogenous activity of the Nrf2 transcription factor in cultured mammalian cells. Expression of Firefly luciferase from NQO1-ARE luciferase reporter plasmid is controlled by binding of Nrf2 to a specific enhancer sequence corresponding to the antioxidant response element (ARE) that was identified in the promoter region of the human NADPH:quinone oxidoreductase 1 (NQO1) gene (Xie et al., 1995). The plasmid was constructed by inserting a sequence:
5′-[…]-3′ (SEQ ID NO:1) encompassing the human NQO1-ARE into the pLuc-MCS vector using HindIII/XhoI cloning sites (GenScript Corp., Piscataway, N.J.). The assay is performed in HuH7 cells maintained in DMEM (Invitrogen) supplemented with 10% FBS and 100 U/ml (each) of penicillin and streptomycin. For the assay, cells are plated in 96-well plates at 17,000 cells per well. Twenty four hours later, the cells are co-transfected with 50 ng each of NQO1-ARE reporter plasmid and pRL-TK plasmid using Lipofectamine 2000 transfection reagent (Invitrogen). pRL-TK plasmid constitutively expresses Renilla luciferase and is used as an internal control for normalization of transfection levels. Thirty hours after transfection, the cells are treated with compounds (at concentrations ranging from 0 to 1 μM) for eighteen hours. Firefly and Renilla luciferase activity is assayed by Dual-Glo Luciferase Assay (Promega Corp., Madison, Wis.), the luminescence signal is measured on an L-Max II luminometer (Molecular Devices). Firefly luciferase activity is normalized to the Renilla activity, and fold induction over a vehicle control (DMSO) of normalized Firefly activity is calculated. The fold induction at 62.5 nM concentration is used for comparing relative potencies of compounds to induce Nrf2 transcriptional activity. See Xie T, Belinsky M, Xu Y, Jaiswal A K. ARE- and TRE-mediated regulation of gene expression. Response to xenobiotics and antioxidants. J Biol Chem. (1995) 270(12):6894-6900, which is incorporated herein by reference.

Setting [3] is: Mus musculus, RAW264.7, RAW264.7 cells.

A value given as a limit tells only on which side of the number the result lay.

`C[C@@H]1C(=O)C(C#N)=C[C@]2(C)c3nn(C)c(-c4ccccc4)c3CC[C@@H]12` (racemic) [TX63541]: in experiment [1] (setting [3]), the IC50 came to 0.006 µM. For the same compound, the fold induction at 0.0625 µM in experiment [2] was found to be 4.4.
For `Cn1cc2c(n1)[C@@]1(C)C=C(C#N)C(=O)C(C)(C)[C@@H]1CC2` [TX63341], in experiment [1] (RAW264.7 cells), the IC50 came out at 0.07 µM. In experiment [2], this compound displayed a fold induction at 0.0625 µM of 1.7.
Turning to `Cn1nc2c(c1-c1ccccc1)CC[C@H]1C(C)(C)C(=O)C(C#N)=C[C@]21C` [TX63465], in experiment [1] (setting [3]), the IC50 amounted to 0.0183 µM. The fold induction at 0.0625 µM in experiment [2] amounted to 4.8.
As to `Cc1ncc2c(n1)[C@@]1(C)C=C(C#N)C(=O)C(C)(C)[C@@H]1CC2` [TX63468], the IC50 in experiment [1] (setting [3]) came to 0.064 µM. The compound also returned a fold induction at 0.0625 µM in experiment [2] of 2.
As for `Cn1nc2c(c1-c1cccnc1)CC[C@H]1C(C)(C)C(=O)C(C#N)=C[C@]21C` [TX63503], the IC50 in experiment [1] (setting [3]) was 0.017 µM. This compound also had a fold induction at 0.0625 µM in experiment [2] of 5.5.
For `Cn1nc2c(c1-c1ccncc1)CC[C@H]1C(C)(C)C(=O)C(C#N)=C[C@]21C` [TX63505] the same measures were 0.016 µM and 6.8.
For `Cn1nc2c(c1-c1cccc(F)c1)CC[C@H]1C(C)(C)C(=O)C(C#N)=C[C@]21C` [TX63506] the same measures were 0.025 µM and 3.2.
For `Cc1cccc(-c2c3c(nn2C)[C@@]2(C)C=C(C#N)C(=O)C(C)(C)[C@@H]2CC3)c1` [TX63512] the same measures were 0.025 µM and 1.4.
Take `COc1cccc(-c2c3c(nn2C)[C@@]2(C)C=C(C#N)C(=O)C(C)(C)[C@@H]2CC3)c1` [TX63513]: the IC50 in experiment [1] (setting [3]) stood at 0.025 µM. The compound further registered a fold induction at 0.0625 µM in experiment [2] of 2.9.
For the compound `Cn1nc2c(c1-c1ccccc1F)CC[C@H]1C(C)(C)C(=O)C(C#N)=C[C@]21C` [TX63519], the IC50 in experiment [1] (setting [3]) came out at 0.021 µM. For the same compound, the fold induction at 0.0625 µM in experiment [2] stood at 2.5.
Consider `Cn1nc2c(c1NC(=O)c1ccccc1)CC[C@H]1C(C)(C)C(=O)C(C#N)=C[C@]21C` [TX63531], for which, in experiment [1] (setting [3]), the IC50 was over 0.2 µM. The fold induction at 0.0625 µM in experiment [2] worked out at 1.1.
For the compound `Cn1nc2c(c1-c1ccccc1)CC[C@H]1CC(=O)C(C#N)=C[C@]21C` [TX63540], in experiment [1] (setting [3]), the IC50 was determined as 0.0668 µM. Further, the fold induction at 0.0625 µM in experiment [2] was 1.6.
For `CC(C)c1c2c(nn1C)[C@@]1(C)C=C(C#N)C(=O)C(C)(C)[C@@H]1CC2` [TX63547] the same measures were 0.087 µM and 3.1.
For `Cn1nc2c(c1Cc1ccccc1)CC[C@H]1C(C)(C)C(=O)C(C#N)=C[C@]21C` [TX63550] the same measures were 0.054 µM and 1.8.
For `CC1(C)C(=O)C(C#N)=C[C@]2(C)c3nc(-c4ccccc4)ncc3CC[C@@H]12` [TX63552] the same measures were 0.024 µM and 1.9.
For the compound `Cc1ncc2c(n1)[C@@]1(C)C=C(C#N)C(=O)[C@@H](C)[C@@H]1CC2` [TX63554], the IC50 in experiment [1] (setting [3]) worked out at 0.042 µM. Further, the fold induction at 0.0625 µM in experiment [2] was determined as 1.9.
For `CC(C)(C)c1ncc2c(n1)[C@@]1(C)C=C(C#N)C(=O)C(C)(C)[C@@H]1CC2` [TX63561] the same measures were 0.044 µM and 2.4.
For `CN1C(=O)C(C#N)=C[C@]2(C)c3nn(C)c(-c4ccccc4)c3CC[C@@H]12` [TX63568] the same measures were over 0.2 µM and 1.3.
For `C[C@@H]1C(=O)C(C#N)=C[C@]2(C)c3nc(-c4ccccc4)ncc3CC[C@@H]12` [TX63569] the same measures were 0.0098 µM and 2.
Turning to `Cc1nc2c(c(=O)n1C)CC[C@H]1C(C)(C)C(=O)C(C#N)=C[C@]21C` [TX63584], in experiment [1] (setting [3]), the IC50 is over 0.2 µM. Further, the fold induction at 0.0625 µM in experiment [2] came to 3.1.
On to `CC1(C)C(=O)C(C#N)=C[C@]2(C)c3nc(-c4cccnc4)ncc3CC[C@@H]12` [TX63586], for which the IC50 in experiment [1] (setting [3]) was 0.022 µM. Also, the fold induction at 0.0625 µM in experiment [2] worked out at 2.9.
As for `Cn1cc(-c2c3c(nn2C)[C@@]2(C)C=C(C#N)C(=O)C(C)(C)[C@@H]2CC3)cn1` [TX63588], the IC50 in experiment [1] (setting [3]) came out at 0.033 µM. The same compound returned a fold induction at 0.0625 µM in experiment [2] of 5.2.
For `CC[C@@H]1C(=O)C(C#N)=C[C@]2(C)c3nc(-c4ccccc4)ncc3CC[C@@H]12` [TX63598] the same measures were 0.012 µM and 1.9.
Take `CC[C@@H]1C(=O)C(C#N)=C[C@]2(C)c3nn(C)c(-c4ccccc4)c3CC[C@@H]12` [TX63599]: the IC50 in experiment [1] (setting [3]) was determined as 0.014 µM. The fold induction at 0.0625 µM in experiment [2] was 3.2.
With `Cn1nc2c(c1Cl)CC[C@H]1C(C)(C)C(=O)C(C#N)=C[C@]21C` [TX63604], in experiment [1] (setting [3]), the IC50 was determined as 0.049 µM. Besides, the fold induction at 0.0625 µM in experiment [2] was 3.4.
For `CC1(C)C(=O)C(C#N)=C[C@]2(C)c3c(c(-c4ccccc4)nn3-c3ccccc3)CC[C@@H]12` [TX63605] the same measures were 0.037 µM and 2.8.
Regarding `Cn1nc2c(c1-c1ccccc1)CC[C@H]1[C@H](Cc3ccccc3)C(=O)C(C#N)=C[C@]21C` [TX63607], the IC50 in experiment [1] (setting [3]) was over 0.2 µM. In experiment [2], the fold induction at 0.0625 µM is 1.
On to `COc1nc(-c2cccnc2)nc2c1CC[C@H]1[C@H](C)C(=O)C(C#N)=C[C@]21C` [TX63724], for which the IC50 in experiment [1] (setting [3]) turned out to be 0.0031 µM. For the same compound, in experiment [2], the fold induction at 0.0625 µM came out at 4.9.
`C[C@@H]1C(=O)C(C#N)=C[C@]2(C)c3nn(C)c(-c4cn(C)[n+]([O-])c4)c3CC[C@@H]12` [TX63849]: the IC50 in experiment [1] (setting [3]) was over 0.2 µM.
As for `CC(=O)n1nc2c(c1-c1ccccc1)CC[C@H]1[C@H](C)C(=O)C(C#N)=C[C@]21C` [TX63850], the IC50 in experiment [1] (setting [3]) was 0.0089 µM.
Same read-out and setting: the value for `C[C@@H]1C(=O)C(C#N)=C[C@]2(C)c3nn(C)c(-c4ccccn4)c3CC[C@@H]12` [TX63851] was 0.0051 µM; that for `CNc1nc(C)nc2c1CC[C@H]1[C@H](C)C(=O)C(C#N)=C[C@]21C` [TX63852] was 0.03 µM; that for `COc1nc(C(C)(C)C)nc2c1CC[C@H]1[C@H](C)C(=O)C(C#N)=C[C@]21C` [TX63853] was 0.031 µM.
Same read-out and setting: in the case of `Cc1nnc(-c2c3c(nn2C)[C@@]2(C)C=C(C#N)C(=O)[C@@H](C)[C@@H]2CC3)o1` [TX63857] it was 0.0063 µM; in that of `CCOC(=O)n1nc2c(c1-c1ccccc1)CC[C@H]1[C@H](C)C(=O)C(C#N)=C[C@]21C` [TX63871], 0.0075 µM.
For `Cc1noc(-c2c3c(nn2C)[C@@]2(C)C=C(C#N)C(=O)[C@@H](C)[C@@H]2CC3)n1` [TX63872], the IC50 in experiment [1] (setting [3]) is 0.0046 µM.
On the same count and under the same terms, in the case of `COc1ncnc2c1CC[C@H]1[C@H](C)C(=O)C(C#N)=C[C@]21C` [TX63874] it was 0.0055 µM.
As for `CCOc1nc(C(C)(C)C)nc2c1CC[C@H]1[C@H](C)C(=O)C(C#N)=C[C@]21C` [TX63900], the IC50 in experiment [1] (setting [3]) turned out to be 0.04 µM.
Same read-out and setting: in the case of `CC(C)n1cnc(-c2c3c(nn2C)[C@@]2(C)C=C(C#N)C(=O)C(C)(C)[C@@H]2CC3)n1` [TX63905] it was 0.129 µM.
